Data set [1] is described as follows: Photostability of Compound A in various mediums (water, brewed coffee, tea, TBHQ in water; FIG. 1). The following applies: TBHQ 200 ppm in water. The class given is physicochemical. Here is the method: The equivalent sunlight exposure time for 24 hours in the Q-Sun at a constant temperature of 25° C. and irradiance of 450 mW/m^2 @340 nm is estimated to be equivalent to approximately 15.9 days of direct sunlight in the Southwestern United States.
FIG. 1 illustrates the effect of coffee and tea on rate of photo-degradation of Compound A relative to water alone.

One may read the melting point as the temperature, or range, at which the solid turns liquid. `Cc1nc2cccc(OCC(C)(C)NC(=O)CC3CCOCC3)c2c(N)c1C(=O)O` [Example 145, 4-amino-2-methyl-5-(2-methyl-2-(2-(tetrahydro-2H-pyran-4-yl)acetamido)-propoxy)quinoline-3-carboxylic Acid] had a melting point of 175 to 178 °C.
Turning to `Cc1nc2cccc(OCC(C)(C)C(=O)NCC3CC3)c2c(N)c1C(=O)O` [Example 146, 4-amino-5-(3-((cyclopropylmethyl)amino)-2,2-dimethyl-3-oxopropoxy)-2-methylquinoline-3-carboxylic Acid], the melting point lay within 177 to 179 °C.
`CCCCNC(=O)C(C)(C)COc1cccc2nc(C)c(C(=O)O)c(N)c12` [Example 147, 4-amino-5-(3-(butylamino)-2,2-dimethyl-3-oxopropoxy)-2-methylquinoline-3-carboxylic Acid] had a melting point of 195 to 199 °C.
Compound `CCC(CC)NC(=O)C(C)(C)COc1cccc2nc(C)c(C(=O)O)c(N)c12` [Example 148, 4-amino-5-(2,2-dimethyl-3-oxo-3-(pentan-3-ylamino)propoxy)-2-methyl-quinoline-3-carboxylic Acid] came in with a melting point of 172 to 174 °C.
The same measure, in the same setting: in the case of `Cc1nc2cccc(OCC(C)(C)NC(=O)CN3CCOCC3)c2c(N)c1C(=O)O` [Example 149, 4-amino-2-methyl-5-(2-methyl-2-(2-morpholinoacetamido)propoxy)quinoline-3-carboxylic Acid] it was 173 to 175 °C.
As to `Cc1nc2cccc(OCC(C)(C)C(=O)NCC(C)C)c2c(N)c1C(=O)O` [Example 150, 4-amino-5-(3-(isobutylamino)-2,2-dimethyl-3-oxopropoxy)-2-methylquinoline-3-carboxylic Acid], the melting point lay in the range of 176 to 179 °C.
`Cc1nc2cccc(OCC(C)(C)C(=O)NCC3CCC3)c2c(N)c1C(=O)O` [Example 151, 4-amino-5-(3-((cyclobutylmethyl)amino)-2,2-dimethyl-3-oxopropoxy)-2-methylquinoline-3-carboxylic Acid]: the melting point fell in the range of 170 to 172 °C.
On the same count and under the same terms, with `CCC(=O)N1CCC(COc2cccc3nc(C)c(C(=O)O)c(N)c23)CC1` [Example 153, 4-amino-2-methyl-5-((1-propionylpiperidin-4-yl)methoxy)quinoline-3-carboxylic Acid] the figure was 168 to 170 °C; with `CNC(=O)[C@H]1CC[C@H](Oc2cccc3nc(C)c(C(=O)O)c(N)c23)CC1` [Example 154, 4-amino-2-methyl-5-(((1,4)-trans-4-(methylcarbamoyl)cyclohexyl)oxy)quinoline-3-carboxylic Acid], 195 to 198 °C.
Regarding `CCCOc1cccc2c1C(N)=NS(=O)(=O)N2` [Example 158, 4-Amino-5-(propyloxy)-1H-benzo[c][1,2,6]thiadiazine-2,2-dioxide], the melting point was in the range of 229 to 230 °C.
`Nc1nc(=O)[nH]c2sc3c(c12)CCOC3` [Example 159, 4-Amino-5,6-(5′,7′-dihydro-4′H-[2′,3′-c]pyrano)thieno[2,3-d]-pyrimidine-2(1H)-one] returned a melting point greater than 260 °C.
Compound `CCCNC(=O)C(C)(C)COc1cccc2c1C(N)=NS(=O)(=O)N2` [Example 197, 3-(4-Amino-2,2-dioxide-1H-benzo[c][1,2,6]thiadiazin-5-yloxy)-2′,2′-dimethyl-N-propylpropanamide] registered a melting point of 225 to 226 °C.
The compound `CC(C)(COc1cccc2c1C(N)=NS(=O)(=O)N2)NC(=O)c1ccccc1` [Example 198, N-(1-(4-amino-2,2-dioxide-1H-benzo[c][1,2,6]thiadiazin-5-yloxy)-2′-methylpropan-2′-yl)benzamide] yielded a melting point of 235 to 236 °C.
Take `CC(C)(C)c1cc(O)ccc1O` [tert-butyl hydroquinone]: in data set [1], the “effect on the rate of photo-degradation of Compound A” value is given as “marginal effect”.
